Measurements taken from US11415579B2, “Assay for measuring a rate of reaction between a target and a ligand candidate” (Imperial College Innovations Ltd., priority 2016, dated 2022).

Legend:
[1] = Kinetic thiol consumption assay with model thiol glutathione; format: physicochemical; design: Rate constant with glutathione (k(GSH)): unit not given here; conditions: for Rate constant with glutathione (k(GSH)): 500 μM ligand, 5 μM thiol, phosphate buffer pH 8; for Rate constant with Glutathione: Protein: Glutathione, cysteine position NA, in h-1
Procedure, shortened: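 Rate constants for acrylamide reaction with 5 μM glutathione come from first-order exponential fits of normalized fluorescence decay (ex 380, em 470 nm). Reactions run in degassed phosphate buffer at pH 8 containing TCEP beads, room temperature.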

[2] = biological target: T1, human cyclin-dependent kinase 2 (Cdk2) (Homo sapiens, UniProt P24941); assay: Kinetic thiol consumption assay with wild type Cdk2 (C177); format: binding; design: key to Rate enhancement, Cdk2 WT: k(Cdk2) divided by k(model thiol); Rate constant with Cdk2 (k(Cdk2)): unit not given here; conditions: for Rate constant with Cdk2 (k(Cdk2)): 500 μM ligand, 5 μM thiol, phosphate buffer pH 8; for Rate enhancement, Cdk2 WT: no additional mutations; for Rate constant with Cdk2 WT: Protein: Cdk2, cysteine position WT, in h^-1; for k(Cdk2)/k(Cdk2_mut) rate enhancement: model thiol Cdk2[C177A, F80C, K278C]; for k(Cdk2)/k(GSH) rate enhancement: model thiol glutathione
T1 construct: poly-histidine; made in house; host or cells: E. coli
Procedure, shortened: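 Rate enhancement: first-order decay constant with Cdk2 over that with a model thiol. Thiols (5 μM, degassed phosphate buffer pH 8, immobilized TCEP) were incubated with acrylamides at room temperature, and thiol consumption followed by fluorescence at 380/470 nm, normalized to DMSO control. Cdk2 was His-tagged, E. coli-expressed, with one surface cysteine (C177).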

Cdk2[C177A, F80C, K278C] = biological target: T2, Cdk2[C177A, F80C, K278C] (Homo sapiens, UniProt P24941, C177A/F80C/K278C); assay: Kinetic thiol consumption assay with mutant Cdk2 as model thiol; format: binding; design: unit not given here; conditions: 500 μM ligand, 5 μM thiol, phosphate buffer pH 8
T2 construct: poly-histidine; made in house; host or cells: E. coli
Procedure, shortened: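 First-order rate constants were derived by exponential-decay fitting of DMSO/thiol-normalized fluorescence (380/470 nm) over time at room temperature. Thiol was 5 μM E. coli-expressed His-tagged Cdk2 mutant C177A/F80C/K278C in degassed pH 8 phosphate buffer containing 2% v/v TCEP beads.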

Cdk2(C177A, F80C) = biological target: T3, Cdk2(C177A, F80C) (Homo sapiens, UniProt P24941, C177A/F80C); assay: Kinetic thiol consumption assay with Cdk2 mutant F80C, incl. kobs versus concentration (Kd, k2); format: binding; design: key to Rate enhancement, Cdk2 F80C: Cdk2 rate constant divided by model-thiol rate constant; conditions: additional mutation C177A; for Rate constant with Cdk2 F80C: Protein: Cdk2, cysteine position F80C, in h^-1
T3 construct: poly-histidine; made in house; host or cells: E. coli
Procedure, shortened: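 His-tagged Cdk2(C177A/F80C) from E. coli or model thiol, 5 μM in degassed phosphate buffer pH 8 with TCEP beads, reacted with acrylamide ligands; fluorescence (ex/em 380/470 nm) normalized to DMSO control and fitted to first-order decay for kobs. Kd and k2 obtained from hyperbolic fit of kobs versus ligand concentration.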

Cdk2(H71C) (C177A) = biological target: T4, Cdk2(H71C) (C177A) (Homo sapiens, UniProt P24941, C177A/H71C); assay: Kinetic thiol consumption assay with Cdk2 mutant H71C; format: binding; design: key to Rate enhancement, Cdk2 H71C: rate constant with Cdk2 ÷ rate constant with model thiol (fold); conditions: additional mutation C177A; for Rate constant with Cdk2 H71C: Protein: Cdk2, cysteine position H71C, in h^-1
T4 construct: poly-histidine; made in house; host or cells: E. coli
Procedure, shortened: (§1)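 Read-out is fluorescence at 380/470 nm, taken after 1 h at room temperature and normalized to a DMSO/thiol-only control over time. Thiol (5 μM Cdk2 mutant or model thiol) was in degassed pH 8 phosphate buffer with 2% v/v TCEP beads. Acrylamide rate constants for Cdk2 were divided by those with model thiol.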

Cdk2(S276C) (C177A) = biological target: T5, Cdk2(S276C) (C177A) (Homo sapiens, UniProt P24941, C177A/S276C); assay: Kinetic thiol consumption assay with Cdk2 mutant S276C; format: binding; design: key to Rate enhancement, Cdk2 S276C: rate constant with Cdk2 ÷ rate constant with model thiol (fold); conditions: additional mutation C177A; for Rate constant with Cdk2 S276C: Protein: Cdk2, cysteine position S276C, in h^-1
T5 construct: poly-histidine; made in house; host or cells: E. coli
Procedure, shortened: as §1

Cdk2(N272C) (C177A) = biological target: T6, Cdk2(N272C) (C177A) (Homo sapiens, UniProt P24941, C177A/N272C); assay: Kinetic thiol consumption assay with Cdk2 mutant N272C; format: binding; design: key to Rate enhancement, Cdk2 N272: rate constant with Cdk2 ÷ rate constant with model thiol (fold); conditions: for Rate enhancement, Cdk2 N272: Cdk2 N272, additional mutation C177A; for Rate constant with Cdk2 N272C: Protein: Cdk2, cysteine position N272C, additional mutation C177A, in h^-1
T6 construct: poly-histidine; made in house; host or cells: E. coli
Procedure, shortened: as §1

Cdk2(T182C) (C177A) = biological target: T7, Cdk2(T182C) (C177A) (Homo sapiens, UniProt P24941, C177A/T182C); assay: Kinetic thiol consumption assay with Cdk2 mutant T182C; format: binding; design: key to Rate enhancement, Cdk2 T182C: rate constant with Cdk2 ÷ rate constant with model thiol (fold); conditions: additional mutation C177A; for Rate constant with Cdk2 T182C: Protein: Cdk2, cysteine position T182C, in h^-1
T7 construct: poly-histidine; made in house; host or cells: E. coli
Procedure, shortened: as §1

Cdk2(R122C) (C177A) = biological target: T8, Cdk2(R122C) (C177A) (Homo sapiens, UniProt P24941, C177A/R122C); assay: Kinetic thiol consumption assay with Cdk2 mutant R122C; format: binding; design: key to Rate enhancement, Cdk2 R122C: rate constant with Cdk2 ÷ rate constant with model thiol (fold); conditions: additional mutation C177A; for Rate constant with Cdk2 R122C: Protein: Cdk2, cysteine position R122C, in h-1
T8 construct: poly-histidine; made in house; host or cells: E. coli
Procedure, shortened: as §1

Cdk2(S181C) (C177A) = biological target: T9, Cdk2(S181C) (C177A) (Homo sapiens, UniProt P24941, C177A/S181C); assay: Kinetic thiol consumption assay with Cdk2 mutant S181C; format: binding; design: key to Rate enhancement, Cdk2 S181C: rate constant with Cdk2 ÷ rate constant with model thiol (fold); conditions: additional mutation C177A; for Rate constant with Cdk2 S181C: Protein: Cdk2, cysteine position S181C, in h^-1
T9 construct: poly-histidine; made in house; host or cells: E. coli
Procedure, shortened: as §1

| Structure (SMILES) | Rate constant with Cdk2 (k(Cdk2)) [2] | Rate enhancement, Cdk2 WT [2] | Rate constant with Cdk2 WT [2] | k(Cdk2)/k(Cdk2_mut) rate enhancement [2] | k(Cdk2)/k(GSH) rate enhancement [2] | Rate constant with Cdk2[C177A, F80C, K278C] (k(Cdk2_mut)) (Cdk2[C177A, F80C, K278C]) | Rate enhancement, Cdk2 F80C (Cdk2(C177A, F80C)) | Rate constant with Cdk2 F80C (Cdk2(C177A, F80C)) | Rate enhancement, Cdk2 H71C (Cdk2(H71C) (C177A)) | Rate enhancement, Cdk2 S276C (Cdk2(S276C) (C177A)) | Rate constant with Cdk2 S276C (Cdk2(S276C) (C177A)) | Rate enhancement, Cdk2 N272 (Cdk2(N272C) (C177A)) | Rate constant with Cdk2 N272C (Cdk2(N272C) (C177A)) | Rate enhancement, Cdk2 T182C (Cdk2(T182C) (C177A)) | Rate constant with Cdk2 T182C (Cdk2(T182C) (C177A)) | Rate enhancement, Cdk2 R122C (Cdk2(R122C) (C177A)) | Rate constant with Cdk2 R122C (Cdk2(R122C) (C177A)) | Rate enhancement, Cdk2 S181C (Cdk2(S181C) (C177A)) | Rate constant with glutathione (k(GSH)) [1] | Rate constant with Glutathione [1] | other results |
| --- | --- | --- | --- | --- | --- | --- | --- | --- | --- | --- | --- | --- | --- | --- | --- | --- | --- | --- | --- | --- | --- |
| C=CC(=O)N1CC(Cc2ccccc2)C1 [CA-072] | 0.0241 | 1.085 | 0.0241 | 5.016 | 1.95 | 0.00481 | 0.2566 | 0.0057 | 16.46 | 4.036 | 0.08965 | 9.388 | 0.2085 | 6.718 | 0.1492 | 0.3503 | 0.00778 | 2.167 | 0.01236 | 0.02221 | Rate constant with Cdk2 H71C (Cdk2(H71C) (C177A)): 0.3655; Rate constant with Cdk2 S181C (Cdk2(S181C) (C177A)): 0.04813 |
| C=CC(=O)NCCCN(C(=O)C1CCC1)C1CC1 [CA-060] | 0.00226 | 0.7143 | 0.00367 | 1.013 | 0.7988 | 0.00223 |  | ~0.0004944 | 0 | 1.112 | 0.005711 | 3.677 | 0.01889 | 1.619 | 0.00832 | 0.4675 | 0.002402 | 0.7812 | 0.00283 | 0.005138 | Rate constant with Cdk2 S181C (Cdk2(S181C) (C177A)): 0.004014 |
| C=CC(=O)N1C(=O)CC(c2ccccc2)N(C(=O)C=C)c2ccccc21 (stereo not drawn) [CA-165-1] | 0.3945 | 1.092 | 5.676 | 0.3473 | 0.8877 | 1.136 | 0.661 | 3.436 | 0 | 0 |  | 0 |  | 0 |  | 0 |  | 0 | 0.4444 | 5.198 |  |
| C=CC(=O)N1CCC(c2nnc3n2CCC3)CC1 [CA-106] | 0.00145 | 0.5857 | 0.002317 | 0.9576 | 0.6367 | 0.00151 | 0 |  | 0 | 0.7543 | 0.002984 | 3.031 | 0.01199 | 3.971 | 0.01571 | 0.2819 | 0.001115 | 1.69 | 0.00227 | 0.003956 | Rate constant with Cdk2 S181C (Cdk2(S181C) (C177A)): 0.006686 |

Continued, in another order:

| Rate constant with Cdk2 (k(Cdk2)) [2] | Rate enhancement, Cdk2 WT [2] | Rate constant with Cdk2 WT [2] | k(Cdk2)/k(Cdk2_mut) rate enhancement [2] | k(Cdk2)/k(GSH) rate enhancement [2] | Rate constant with Cdk2[C177A, F80C, K278C] (k(Cdk2_mut)) (Cdk2[C177A, F80C, K278C]) | Rate enhancement, Cdk2 F80C (Cdk2(C177A, F80C)) | Rate constant with Cdk2 F80C (Cdk2(C177A, F80C)) | Rate enhancement, Cdk2 H71C (Cdk2(H71C) (C177A)) | Rate enhancement, Cdk2 S276C (Cdk2(S276C) (C177A)) | Rate constant with Cdk2 S276C (Cdk2(S276C) (C177A)) | Rate enhancement, Cdk2 N272 (Cdk2(N272C) (C177A)) | Rate constant with Cdk2 N272C (Cdk2(N272C) (C177A)) | Rate enhancement, Cdk2 T182C (Cdk2(T182C) (C177A)) | Rate constant with Cdk2 T182C (Cdk2(T182C) (C177A)) | Rate enhancement, Cdk2 R122C (Cdk2(R122C) (C177A)) | Rate constant with Cdk2 R122C (Cdk2(R122C) (C177A)) | Rate enhancement, Cdk2 S181C (Cdk2(S181C) (C177A)) | Structure (SMILES) | Rate constant with glutathione (k(GSH)) [1] | Rate constant with Glutathione [1] | other results |
| --- | --- | --- | --- | --- | --- | --- | --- | --- | --- | --- | --- | --- | --- | --- | --- | --- | --- | --- | --- | --- | --- |
| 0.00274 | 0.8082 | 0.002743 | 0.5955 | 0.7775 | 0.00461 | 2.756 | 0.009353 | 1.092 | 0.5613 | 0.001905 | 1.172 | 0.003977 | 9.081 | 0.03082 | 0.7319 | 0.002484 | 1.561 | C=CC(=O)N1CCCCCC1c1cccs1 (stereo not drawn) [EL-1063] | 0.00353 | 0.003394 | Rate constant with Cdk2 H71C (Cdk2(H71C) (C177A)): 0.003705; Rate constant with Cdk2 S181C (Cdk2(S181C) (C177A)): 0.005297 |
| 0.00213 | 0.3281 | 0.002126 | 0.4738 | 0.3244 | 0.00449 | 0.1379 | 0.0008934 | 0.3667 | 0.7301 | 0.004731 | 0.325 | 0.002106 | 1.009 | 0.00654 | 0.3573 | 0.002315 | 0.9519 | C=CC(=O)N1CCCCCC1c1cccnc1 (stereo not drawn) [EL-1059] | 0.00656 | 0.00648 | Rate constant with Cdk2 H71C (Cdk2(H71C) (C177A)): 0.002376; Rate constant with Cdk2 S181C (Cdk2(S181C) (C177A)): 0.006168 |
| 0.014 | 4.291 | 0.03792 | 1.746 | 2.839 | 0.00802 | 1.059 | 0.009355 | 0.2745 | 3.446 | 0.03045 | 1.495 | 0.01321 | 17.17 | 0.1517 | 0.3144 | 0.002778 | 2.376 | C=CC(=O)NCC1(NC(=O)OC(C)(C)C)CCCCC1 [EL-1143] | 0.00493 | 0.008837 | Rate constant with Cdk2 H71C (Cdk2(H71C) (C177A)): 0.002426; Rate constant with Cdk2 S181C (Cdk2(S181C) (C177A)): 0.021 |
